Assays:
Assay type in all cases: in vivo
[1] = system: Chenopodium Sp.; test: Pre-emergent herbicidal action (B.2); details: 500 bis 2000 [g/ha], evaluated after 3 weeks
Procedure: (§1) Im Gewächshaus wird unmittelbar nach der Einsaat der Versuchspflanzen in Saatschalen die Erdoberfläche mit einer wässrigen Dispersion der Wirkstoffe, erhalten aus einem 25 %igen Emulsionskonzentrat behandelt. Es werden Konzentrationen von 2000-500 g Wirksubstanz/Hektar angewendet. Die Saatschalen werden im Gewächshaus bei 22-25° C und 50-70 % relativer Luftfeuchtigkeit gehalten und der Versuch nach 3 Wochen ausgewertet und die Resultate nach folgender Notenskala ausgewertet. • 1 Pflanze hat nicht gekeimt oder ist eingegangen • 2-3 sehr starke Schäden • 4 starke Schäden • 5 mittlere Schäden, die Pflanzen sind verkümmert • 6 Schäden, die Pflanze kann regenerieren • 7-8 leichte Schäden • 9 normales Wachstum, wie das unbehandelter Pflanzen
(§2) Boniturnoten von 1 bis 4 (insbesondere von 1 bis 3) weisen auf eine gute bis sehr gute Herbizidwirkung hin. Boniturnoten von 6 bis 9 (insbesondere 7 bis 9) weisen auf eine gute Toleranz (insbesondere bei Kulturpflanzen) hin.

[2] = system: Ipomoea; test: Pre-emergent herbicidal action (B.2); details: 500 bis 2000 [g/ha], evaluated after 3 weeks
Procedure: as §1, §2

[3] = system: Amaranthus ret.; test: Pre-emergent herbicidal action (B.2); details: 500 bis 2000 [g/ha], evaluated after 3 weeks
Procedure: as §1, §2

[4] = system: Galium aparine; test: Pre-emergent herbicidal action (B.2); details: 500 bis 2000 [g/ha], evaluated after 3 weeks
Procedure: as §1, §2

[5] = system: Avena fatua; test: Pre-emergent herbicidal action (B.2); details: 500 bis 2000 [g/ha], evaluated after 3 weeks
Procedure: as §1, §2

[6] = system: Chrysanthe. leuc.; test: Pre-emergent herbicidal action (B.2); details: 500 bis 2000 [g/ha], evaluated after 3 weeks
Procedure: as §1, §2

[7] = system: Sorghum halep.; test: Pre-emergent herbicidal action (B.2); details: 500 bis 2000 [g/ha], evaluated after 3 weeks
Procedure: as §1, §2

[8] = system: Lolium perenne; test: Pre-emergent herbicidal action (B.2); details: 500 bis 2000 [g/ha], evaluated after 3 weeks
Procedure: as §1, §2

[9] = system: Echinochloa crus galli; test: Pre-emergent herbicidal action (B.2); details: 500 bis 2000 [g/ha], evaluated after 3 weeks
Procedure: as §1, §2

[10] = system: Bromus tectorum; test: Pre-emergent herbicidal action (B.2); details: 500 bis 2000 [g/ha], evaluated after 3 weeks
Procedure: as §1, §2

[11] = system: Veronica Sp.; test: Pre-emergent herbicidal action (B.2); details: 500 bis 2000 [g/ha], evaluated after 3 weeks
Procedure: as §1, §2

[12] = system: Alopecurus myos.; test: Pre-emergent herbicidal action (B.2); details: 500 bis 2000 [g/ha], evaluated after 3 weeks
Procedure: as §1, §2

[13] = system: Solanum nigrum; test: Pre-emergent herbicidal action (B.2); details: 500 bis 2000 [g/ha], evaluated after 3 weeks
Procedure: as §1, §2

[14] = system: Digitaria sang.; test: Pre-emergent herbicidal action (B.2); details: 500 bis 2000 [g/ha], evaluated after 3 weeks
Procedure: as §1, §2

[15] = system: Abutilon; test: Pre-emergent herbicidal action (B.2); details: 500 bis 2000 [g/ha], evaluated after 3 weeks
Procedure: as §1, §2

[16] = system: Sinapis; test: Pre-emergent herbicidal action (B.2); details: 500 bis 2000 [g/ha], evaluated after 3 weeks
Procedure: as §1, §2

[17] = system: Stellaria; test: Pre-emergent herbicidal action (B.2); details: 500 bis 2000 [g/ha], evaluated after 3 weeks
Procedure: as §1, §2

[18] = system: Chenopodium Sp.; test: Post-emergent herbicidal action, contact herbicide (B.3); details: 500 bis 2000 [g/ha], 15 days after treatment
Procedure: as §1, §2
(§3) Eine Anzahl Unkräuter, sowohl monokotyle wie dikotyle, werden nach dem Auflaufen (im 4- bis 6-Blattstadium) mit einer wässrigen Wirkstoffdispersion in einer Dosierung von 2000-500 g Wirksubstanz pro Hektar auf die Pflanzen gespritzt und diese bei 24°-26°C und 45-60 % relativer Luftfeuchtigkeit gehalten. 15 Tage nach der Behandlung wird der Versuch nach dem in Beispiel B.2. gegebenen Massstab bewertet.

[19] = system: Amaranthus ret.; test: as above; details: 500 bis 2000 [g/ha], 15 days after treatment
Procedure: as §1, §2, §3

[20] = system: Galium aparine; test: as above; details: 500 bis 2000 [g/ha], 15 days after treatment
Procedure: as §1, §2, §3

[21] = system: Avena fatua; test: as above; details: 500 bis 2000 [g/ha], 15 days after treatment
Procedure: as §1, §2, §3

[22] = system: Chrysanthe. leuc.; test: as above; details: 500 bis 2000 [g/ha], 15 days after treatment
Procedure: as §1, §2, §3

[23] = system: Sorghum halep.; test: as above; details: 500 bis 2000 [g/ha], 15 days after treatment
Procedure: as §1, §2, §3

[24] = system: Lolium perenne; test: as above; details: 500 bis 2000 [g/ha], 15 days after treatment
Procedure: as §1, §2, §3

[25] = system: Echinochloa crus galli; test: as above; details: 500 bis 2000 [g/ha], 15 days after treatment
Procedure: as §1, §2, §3

[26] = system: Bromus tectorum; test: as above; details: 500 bis 2000 [g/ha], 15 days after treatment
Procedure: as §1, §2, §3

[27] = system: Veronica Sp.; test: as above; details: 500 bis 2000 [g/ha], 15 days after treatment
Procedure: as §1, §2, §3

[28] = system: Alopecurus myos.; test: as above; details: 500 bis 2000 [g/ha], 15 days after treatment
Procedure: as §1, §2, §3

[29] = system: Xanthium Sp.; test: as above; details: 500 bis 2000 [g/ha], 15 days after treatment
Procedure: as §1, §2, §3

[30] = system: Solanum nigrum; test: as above; details: 500 bis 2000 [g/ha], 15 days after treatment
Procedure: as §1, §2, §3

[31] = system: Digitaria sang.; test: as above; details: 500 bis 2000 [g/ha], 15 days after treatment
Procedure: as §1, §2, §3

[32] = system: Abutilon; test: as above; details: 500 bis 2000 [g/ha], 15 days after treatment
Procedure: as §1, §2, §3

[33] = system: Sinapis; test: as above; details: 500 bis 2000 [g/ha], 15 days after treatment
Procedure: as §1, §2, §3

[34] = system: Stellaria; test: as above; details: 500 bis 2000 [g/ha], 15 days after treatment
Procedure: as §1, §2, §3

[35] = system: Untersaaten in Mais; test: Pre-post selectivity: growth inhibition of undersown grasses (post-emergent) versus maize (pre-emergent)
From the text: Verbindungen der Formel I zeigen in vorteilhafter Weise eine "pre-post-Selektivität" bei verscheidenen Gräsern in Maiskulturen.
Die wuchshemmende Wirkung in Gräsern ist in postemergenter Applikation stark ausgeprägt, während bei gleichzeitiger Preemergenter Applikation Maispflanzen in ihrem Wuchs nur geringfügig gehemmt werden. Derartige "pre-post-Selektivitäten" erlauben somit die Aussaat von Mais in Gräsern. Dabei soll der Zeitpunkt für die Applikation der Aktivsubstanz der Formel so gewählt werden, dass die Aktivsubstanz postemergent für die Gräser ober preemergent für den Mais angewendet wird. In den ersten Wochen ist der Zuwachs der Gräser so stark gehemmt, dass die Maispflanze sich ungehindert entfalten kann.
Eine Mischung von Gräsern (z.B. Poa, Festuca, Lolium, Bromus, Cynosurus) werden in 15 cm - Kunststofftöpfen mit steriler Landerde angesät und im Gewächshaus bei einer Tagestemperatur von 21°C und einer Nachttemperatur von 17°C angezogen. Die Beleuchtungsdauer beträgt 13,5 Stunden/Tag bei einer Lichtintensität von mind. 7000 Lux. Nach dem Ablauf werden die Pflanzen wöchentlich auf ca. 6 cm Höhe zurückgeschnitten. Ca. 42 Tage nach der Saat und 1 Tag nach dem letzten Schnitt erfolgt die Applikation mit 60-500 g Wirkstoff/ha als wässrige Spritzbrühe. Die Wasseraufwandmenge ist ca. 500 I/ha.
20 Tage nach der Behandlung wird der Versuch ausgewertet. Hierbei wird die Höhe des Neuzuwachses gemessen und in % Hemmung zum Durchschnitt der unbehandelten Kontrollen dargestellt. Die nekrotischen Schäden sind in % zur gesamten Blattfläche aufgeführt.
Mais der Sorte Blizzard G188 werden in 15 cm - Kunststofftöpfen mit steriler gesiebter Landerde angesät und im Gewächshaus bei einer Tagestemperatur von 22°C und einer Nachttemperatur von 19°C aufgestellt. Die Beleuchtungsdauer beträgt mindestens 13,5 Stunden/Tag bei einer Lichtintensität von mindestens 7000 Lux. 1 Tag nach der Saat erfolgt die Applikation mit 60-500 g Wirkstoff/ha, in der Regel 25 %ig formuliert und in wässriger Spritzbrühe. Die Wasseraufwandmenge ist ca. 200 I/ha.
16 Tage nach der Behandlung wird der Versuch ausgewertet. […]

## CC1CCCc2nc3c(cc21)C(=O)N1C(=O)C(C)(C(C)C)N=C31 (centres unmarked) [Verbindung 3.02, 2,7-Dimethyl-2-isopropyl-7,8,9,10-tetrahydro-3H,5H-imidazo[1',2':1,2]pyrrolo[3,4-b]chinolin-3,5-dion]
[1]
  Herbizidwirkung: gute bis sehr gute Herbizidwirkung (Boniturnoten von 1 bis 4 (insbesondere von 1 bis 3) weisen auf eine gute bis sehr gute Herbizidwirkung hin)
[2]
  Herbizidwirkung: gute bis sehr gute Herbizidwirkung (Boniturnoten von 1 bis 4 (insbesondere von 1 bis 3) weisen auf eine gute bis sehr gute Herbizidwirkung hin)
[3]
  Herbizidwirkung: gute bis sehr gute Herbizidwirkung (Boniturnoten von 1 bis 4 (insbesondere von 1 bis 3) weisen auf eine gute bis sehr gute Herbizidwirkung hin)
[4]
  Herbizidwirkung: gute bis sehr gute Herbizidwirkung (Boniturnoten von 1 bis 4 (insbesondere von 1 bis 3) weisen auf eine gute bis sehr gute Herbizidwirkung hin)
[5]
  Herbizidwirkung: gute bis sehr gute Herbizidwirkung (Boniturnoten von 1 bis 4 (insbesondere von 1 bis 3) weisen auf eine gute bis sehr gute Herbizidwirkung hin)
[6]
  Herbizidwirkung: gute bis sehr gute Herbizidwirkung (Boniturnoten von 1 bis 4 (insbesondere von 1 bis 3) weisen auf eine gute bis sehr gute Herbizidwirkung hin)
[7]
  Herbizidwirkung: gute bis sehr gute Herbizidwirkung (Boniturnoten von 1 bis 4 (insbesondere von 1 bis 3) weisen auf eine gute bis sehr gute Herbizidwirkung hin)
[8]
  Herbizidwirkung: gute bis sehr gute Herbizidwirkung (Boniturnoten von 1 bis 4 (insbesondere von 1 bis 3) weisen auf eine gute bis sehr gute Herbizidwirkung hin)
[9]
  Herbizidwirkung: gute bis sehr gute Herbizidwirkung (Boniturnoten von 1 bis 4 (insbesondere von 1 bis 3) weisen auf eine gute bis sehr gute Herbizidwirkung hin)
[10]
  Herbizidwirkung: gute bis sehr gute Herbizidwirkung (Boniturnoten von 1 bis 4 (insbesondere von 1 bis 3) weisen auf eine gute bis sehr gute Herbizidwirkung hin)
[11]
  Herbizidwirkung: gute bis sehr gute Herbizidwirkung (Boniturnoten von 1 bis 4 (insbesondere von 1 bis 3) weisen auf eine gute bis sehr gute Herbizidwirkung hin)
[12]
  Herbizidwirkung: gute bis sehr gute Herbizidwirkung (Boniturnoten von 1 bis 4 (insbesondere von 1 bis 3) weisen auf eine gute bis sehr gute Herbizidwirkung hin)
[13]
  Herbizidwirkung: gute bis sehr gute Herbizidwirkung (Boniturnoten von 1 bis 4 (insbesondere von 1 bis 3) weisen auf eine gute bis sehr gute Herbizidwirkung hin)
[14]
  Herbizidwirkung: gute bis sehr gute Herbizidwirkung (Boniturnoten von 1 bis 4 (insbesondere von 1 bis 3) weisen auf eine gute bis sehr gute Herbizidwirkung hin)
[15]
  Herbizidwirkung: gute bis sehr gute Herbizidwirkung (Boniturnoten von 1 bis 4 (insbesondere von 1 bis 3) weisen auf eine gute bis sehr gute Herbizidwirkung hin)
[16]
  Herbizidwirkung: gute bis sehr gute Herbizidwirkung (Boniturnoten von 1 bis 4 (insbesondere von 1 bis 3) weisen auf eine gute bis sehr gute Herbizidwirkung hin)
[17]
  Herbizidwirkung: gute bis sehr gute Herbizidwirkung (Boniturnoten von 1 bis 4 (insbesondere von 1 bis 3) weisen auf eine gute bis sehr gute Herbizidwirkung hin)
[18]
  Herbizidwirkung: gute bis sehr gute Herbizidwirkung (Boniturnoten von 1 bis 4 (insbesondere von 1 bis 3) weisen auf eine gute bis sehr gute Herbizidwirkung hin)
[19]
  Herbizidwirkung: gute bis sehr gute Herbizidwirkung (Boniturnoten von 1 bis 4 (insbesondere von 1 bis 3) weisen auf eine gute bis sehr gute Herbizidwirkung hin)
[20]
  Herbizidwirkung: gute bis sehr gute Herbizidwirkung (Boniturnoten von 1 bis 4 (insbesondere von 1 bis 3) weisen auf eine gute bis sehr gute Herbizidwirkung hin)
[21]
  Herbizidwirkung: gute bis sehr gute Herbizidwirkung (Boniturnoten von 1 bis 4 (insbesondere von 1 bis 3) weisen auf eine gute bis sehr gute Herbizidwirkung hin)
[22]
  Herbizidwirkung: gute bis sehr gute Herbizidwirkung (Boniturnoten von 1 bis 4 (insbesondere von 1 bis 3) weisen auf eine gute bis sehr gute Herbizidwirkung hin)
[23]
  Herbizidwirkung: gute bis sehr gute Herbizidwirkung (Boniturnoten von 1 bis 4 (insbesondere von 1 bis 3) weisen auf eine gute bis sehr gute Herbizidwirkung hin)
[24]
  Herbizidwirkung: gute bis sehr gute Herbizidwirkung (Boniturnoten von 1 bis 4 (insbesondere von 1 bis 3) weisen auf eine gute bis sehr gute Herbizidwirkung hin)
[25]
  Herbizidwirkung: gute bis sehr gute Herbizidwirkung (Boniturnoten von 1 bis 4 (insbesondere von 1 bis 3) weisen auf eine gute bis sehr gute Herbizidwirkung hin)
[26]
  Herbizidwirkung: gute bis sehr gute Herbizidwirkung (Boniturnoten von 1 bis 4 (insbesondere von 1 bis 3) weisen auf eine gute bis sehr gute Herbizidwirkung hin)
[27]
  Herbizidwirkung: gute bis sehr gute Herbizidwirkung (Boniturnoten von 1 bis 4 (insbesondere von 1 bis 3) weisen auf eine gute bis sehr gute Herbizidwirkung hin)
[28]
  Herbizidwirkung: gute bis sehr gute Herbizidwirkung (Boniturnoten von 1 bis 4 (insbesondere von 1 bis 3) weisen auf eine gute bis sehr gute Herbizidwirkung hin)
[29]
  Herbizidwirkung: gute bis sehr gute Herbizidwirkung (Boniturnoten von 1 bis 4 (insbesondere von 1 bis 3) weisen auf eine gute bis sehr gute Herbizidwirkung hin)
[30]
  Herbizidwirkung: gute bis sehr gute Herbizidwirkung (Boniturnoten von 1 bis 4 (insbesondere von 1 bis 3) weisen auf eine gute bis sehr gute Herbizidwirkung hin)
[31]
  Herbizidwirkung: gute bis sehr gute Herbizidwirkung (Boniturnoten von 1 bis 4 (insbesondere von 1 bis 3) weisen auf eine gute bis sehr gute Herbizidwirkung hin)
[32]
  Herbizidwirkung: gute bis sehr gute Herbizidwirkung (Boniturnoten von 1 bis 4 (insbesondere von 1 bis 3) weisen auf eine gute bis sehr gute Herbizidwirkung hin)
[33]
  Herbizidwirkung: gute bis sehr gute Herbizidwirkung (Boniturnoten von 1 bis 4 (insbesondere von 1 bis 3) weisen auf eine gute bis sehr gute Herbizidwirkung hin)
[34]
  Herbizidwirkung: gute bis sehr gute Herbizidwirkung (Boniturnoten von 1 bis 4 (insbesondere von 1 bis 3) weisen auf eine gute bis sehr gute Herbizidwirkung hin)
[35]
  "pre-post-Selektivität" bei Untersaaten in Mais: ausgeprägter "pre-post-Selektivität"
